# Laboratory results taken from the supplement of paper PMC10307832.
# Key:
# Test in all cases: relative viability (nuclei count vs DMSO), 5 days (fraction); higher = more cells survive
# Salubrinal + Crizotinib = compound: O=C(/C=C/c1ccccc1)NC(NC(=S)Nc1cccc2cccnc12)C(Cl)(Cl)Cl [Salubrinal] + C[C@@H](Oc1cc(-c2cnn(C3CCNCC3)c2)cnc1N)c1c(Cl)ccc(F)c1Cl [Crizotinib] (partner 1 µM)
# Outline: (§1)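 The day after seeding in 1536-well plates, lung cancer cell lines were treated by pin tool with a single drug, or with a fixed anchor-drug dose together with five library-drug doses (not always all listed) in √10 steps. After 5 days, a combined fix-and-stain solution (final 0.05% Triton X-100, 1% formaldehyde, 1 ug/ml Hoechst) was added. Nuclei counted on 4× images gave relative viability as treated counts over vehicle counts, reported as the median of duplicate plates.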
# Salubrinal + Decitabine = compound: O=C(/C=C/c1ccccc1)NC(NC(=S)Nc1cccc2cccnc12)C(Cl)(Cl)Cl [Salubrinal] + Nc1ncn([C@H]2C[C@H](O)[C@@H](CO)O2)c(=O)n1 [Decitabine] (partner 2 µM)
# Outline: as §1
# [1] = compound: Cc1ccc2nc(NCCN)c3ncc(C)n3c2c1 + CC(=O)c1c(C)c2cnc(Nc3ccc(N4CCNCC4)cn3)nc2n(C2CCCC2)c1=O [Palbociclib] (partner 0.5 µM)
# Outline: as §1
# [2] = compound: Cc1ccc2nc(NCCN)c3ncc(C)n3c2c1 + NC(=O)Nc1cc(-c2cccc(F)c2)sc1C(=O)N[C@H]1CCCNC1 [AZD7762] (partner 0.2 µM)
# Outline: as §1
cell line,measurement,setting,value
NCI-H727,relative viability,Salubrinal + Crizotinib; first compound 0.08 µM,0.943
same,relative viability,Salubrinal + Crizotinib; first compound 0.253 µM,0.559
same,relative viability,Salubrinal + Crizotinib; first compound 0.8 µM,1.03
same,relative viability,Salubrinal + Crizotinib; first compound 2.53 µM,0.999
same,relative viability,Salubrinal + Crizotinib; first compound 8 µM,0.84
same,relative viability,Salubrinal + Decitabine; first compound 0.08 µM,0.802
same,relative viability,Salubrinal + Decitabine; first compound 0.253 µM,0.876
same,relative viability,Salubrinal + Decitabine; first compound 0.8 µM,0.847
same,relative viability,Salubrinal + Decitabine; first compound 2.53 µM,0.837
same,relative viability,Salubrinal + Decitabine; first compound 8 µM,0.825
same,relative viability,[1]; first compound 0.04 µM,0.648
same,relative viability,[1]; first compound 0.4 µM,0.603
same,relative viability,[1]; first compound 1.265 µM,0.691
same,relative viability,[1]; first compound 4 µM,0.722
same,relative viability,[2]; first compound 0.04 µM,0.611
same,relative viability,[2]; first compound 0.4 µM,0.609
same,relative viability,[2]; first compound 1.265 µM,0.595
same,relative viability,[2]; first compound 4 µM,0.573
NCI-H1355,relative viability,Salubrinal + Crizotinib; first compound 0.08 µM,1.18
same,relative viability,Salubrinal + Crizotinib; first compound 0.253 µM,1.12
same,relative viability,Salubrinal + Crizotinib; first compound 0.8 µM,1.12
same,relative viability,Salubrinal + Crizotinib; first compound 2.53 µM,1.12
same,relative viability,Salubrinal + Crizotinib; first compound 8 µM,1.03
same,relative viability,Salubrinal + Decitabine; first compound 0.08 µM,0.352
same,relative viability,Salubrinal + Decitabine; first compound 0.253 µM,0.394
same,relative viability,Salubrinal + Decitabine; first compound 0.8 µM,0.359
same,relative viability,Salubrinal + Decitabine; first compound 2.53 µM,0.36
same,relative viability,Salubrinal + Decitabine; first compound 8 µM,0.35
same,relative viability,[1]; first compound 0.04 µM,0.46
same,relative viability,[1]; first compound 0.1265 µM,0.4
same,relative viability,[1]; first compound 0.4 µM,0.406
same,relative viability,[1]; first compound 1.265 µM,0.409
same,relative viability,[1]; first compound 4 µM,0.376
same,relative viability,[2]; first compound 0.04 µM,0.75
same,relative viability,[2]; first compound 0.1265 µM,0.685
same,relative viability,[2]; first compound 0.4 µM,0.72
same,relative viability,[2]; first compound 1.265 µM,0.644
same,relative viability,[2]; first compound 4 µM,0.763
HOP-62,relative viability,Salubrinal + Crizotinib; first compound 0.08 µM,1.04
same,relative viability,Salubrinal + Crizotinib; first compound 0.253 µM,0.965
same,relative viability,Salubrinal + Crizotinib; first compound 0.8 µM,1.21
same,relative viability,Salubrinal + Crizotinib; first compound 2.53 µM,0.914
same,relative viability,Salubrinal + Crizotinib; first compound 8 µM,0.26
same,relative viability,Salubrinal + Decitabine; first compound 0.08 µM,0.192
same,relative viability,Salubrinal + Decitabine; first compound 0.253 µM,0.206
same,relative viability,Salubrinal + Decitabine; first compound 0.8 µM,0.196
same,relative viability,Salubrinal + Decitabine; first compound 2.53 µM,0.187
same,relative viability,Salubrinal + Decitabine; first compound 8 µM,0.224
same,relative viability,[1]; first compound 0.04 µM,0.424
same,relative viability,[1]; first compound 0.1265 µM,0.436
same,relative viability,[1]; first compound 0.4 µM,0.475
same,relative viability,[1]; first compound 1.265 µM,0.469
same,relative viability,[1]; first compound 4 µM,0.464
same,relative viability,[2]; first compound 0.04 µM,0.849
same,relative viability,[2]; first compound 0.1265 µM,0.638
same,relative viability,[2]; first compound 0.4 µM,0.528
same,relative viability,[2]; first compound 1.265 µM,0.543
same,relative viability,[2]; first compound 4 µM,0.595
NCI-H2085,relative viability,Salubrinal + Crizotinib; first compound 0.08 µM,0.901
same,relative viability,Salubrinal + Crizotinib; first compound 0.253 µM,0.804
same,relative viability,Salubrinal + Crizotinib; first compound 0.8 µM,0.789
same,relative viability,Salubrinal + Crizotinib; first compound 2.53 µM,0.813
same,relative viability,Salubrinal + Crizotinib; first compound 8 µM,0.834
same,relative viability,Salubrinal + Decitabine; first compound 0.08 µM,0.521
same,relative viability,Salubrinal + Decitabine; first compound 0.253 µM,0.583
same,relative viability,Salubrinal + Decitabine; first compound 0.8 µM,0.564
same,relative viability,Salubrinal + Decitabine; first compound 2.53 µM,0.508
same,relative viability,Salubrinal + Decitabine; first compound 8 µM,0.643
same,relative viability,[1]; first compound 0.04 µM,0.49
same,relative viability,[1]; first compound 0.1265 µM,0.514
same,relative viability,[1]; first compound 0.4 µM,0.465
same,relative viability,[1]; first compound 1.265 µM,0.469
same,relative viability,[1]; first compound 4 µM,0.478
same,relative viability,[2]; first compound 0.04 µM,1.06
same,relative viability,[2]; first compound 0.1265 µM,0.996
same,relative viability,[2]; first compound 0.4 µM,0.916
same,relative viability,[2]; first compound 1.265 µM,0.952
same,relative viability,[2]; first compound 4 µM,1
